# What was measured:
# [1] = tested on: TNF-α; conditions: from macrophages and other cells; Cain et al. 1998; cited from earlier work
# [2] = oral tablet and capsule forms, clinical trials; effects appear to be dose related; cited from earlier work
# [3] = tested on: fibrogenic cytokines such as TGF-β1, bFGF, PDGF, and EGF; conditions: Zhang S et al. 1998; cited from earlier work
# [4] = adverse events associated with pirfenidone therapy in patients; type: in vivo, patient; conditions: dosing escalation scheme described herein (up to 2,403 mg per day, full dosage about Day 15)
# Description: As an investigational drug, pirfenidone is provided in tablet and capsule forms principally for oral administration. Various formulations have been tested and adopted in clinical trials and other research and experiments. […] Many of these effects can interfere with everyday activities and quality of life. These effects appear to be dose related. The adverse reactions associated with pirfenidone therapy are exacerbated when pirfenidone is administered at these higher doses.
# The present invention overcomes the unmet clinical need by providing an improved, optimized dose escalation scheme for the administration of pirfenidone. The dose escalation scheme of the present invention provides pirfenidone in an amount such that the full maximum dosage is not reached for at least one week. In a preferred embodiment, the full maximum dosage of pirfenidone is not reached until about Day 15 of treatment. The method of the present invention allows for a maximum dosage of 2,403 mg of pirfenidone per day to be administered to a patient and also reduces the incidence of adverse events associated with the administration of pirfenidone by more accurately matching dose escalation with tolerance development in the patient. […]
compound,measurement,setting,value
"Cc1ccc(=O)n(-c2ccccc2)c1 [pirfenidone, 5-methyl-1-phenyl-2-(1H)-pyridone]",synthesis and release of excessive amounts of TNF-α,[1],blocks
same,most common adverse reactions or events associated with pirfenidone therapy,[2],"gastrointestinal upset, nausea, fatigue, somnolence, dizziness, headache, and photosensitivity rash"
same,excessive biosynthesis or release of various fibrogenic cytokines,[3],inhibits
same,"adverse events, such as somnolence and photosensitivity reaction, as the dosage escalates",[4],decrease

# From patent US7696236B2, “Method of providing pirfenidone therapy to a patient” (InterMune, Inc., priority 2006, dated 2010)
